Reference: US7423172B2 (Laboratorios Salvat, S.A., priority 2004, dated 2008)

What was measured:
[1] = biological target: T1, GAL4 DNA binding domain fused to the PPARγ LBD (Homo sapiens, UniProt P37231); test: LBD-hPPARs transactivation assay (GAL4-luciferase reporter in COS-7 cells); assay type: cell-based; details: 48 h
T1 construct: expressed in transfected cells; host or cells: COS-7
T1 sequence (P37231 238-503 limits assumed): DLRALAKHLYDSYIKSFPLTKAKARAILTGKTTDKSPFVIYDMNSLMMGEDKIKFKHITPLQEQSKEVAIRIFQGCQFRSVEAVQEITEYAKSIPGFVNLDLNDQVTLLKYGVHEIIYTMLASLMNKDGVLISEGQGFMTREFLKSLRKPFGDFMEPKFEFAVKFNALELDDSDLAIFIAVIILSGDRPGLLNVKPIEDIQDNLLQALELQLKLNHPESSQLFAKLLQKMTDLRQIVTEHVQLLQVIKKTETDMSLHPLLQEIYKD
From the text: LBD-hPPARs Transactivation Assay
COS-7 cells were cultivated in 24-well plates and transfected with the pFACMV plasmids that encode the chimeric proteins containing the GAL4 DNA binding domain fused to the PPARγ LBD. The reporter plasmid for the foregoing constructions was pFR-Luc, which contains five repetitions of the GAL4-response element in front of a promoter that controls the transcription of the luciferase gene. Lipofectamine was used as a transfection agent. The plasmids of the chimeric receptors and the reporter gene were inserted in the cells by transitory transfection in COS-7 cells in culture.

GST-hPPARγ2 = biological target: T2, GST-hPPARγ2 (Homo sapiens, UniProt P37231); test: PPARγ2 binding assay ([3H]BRL-49853 displacement); details: GST-hPPARγ2, [3H]BRL-49853 100 nM, 3 h at 4° C.; read-out: Affinity PPARγ
T2 construct: the complete cDNA of the human PPAR was cloned into pGEX4T2; made in house; host or cells: Escherichia coli BL21 (DE3)
T2 sequence (P37231 1-505): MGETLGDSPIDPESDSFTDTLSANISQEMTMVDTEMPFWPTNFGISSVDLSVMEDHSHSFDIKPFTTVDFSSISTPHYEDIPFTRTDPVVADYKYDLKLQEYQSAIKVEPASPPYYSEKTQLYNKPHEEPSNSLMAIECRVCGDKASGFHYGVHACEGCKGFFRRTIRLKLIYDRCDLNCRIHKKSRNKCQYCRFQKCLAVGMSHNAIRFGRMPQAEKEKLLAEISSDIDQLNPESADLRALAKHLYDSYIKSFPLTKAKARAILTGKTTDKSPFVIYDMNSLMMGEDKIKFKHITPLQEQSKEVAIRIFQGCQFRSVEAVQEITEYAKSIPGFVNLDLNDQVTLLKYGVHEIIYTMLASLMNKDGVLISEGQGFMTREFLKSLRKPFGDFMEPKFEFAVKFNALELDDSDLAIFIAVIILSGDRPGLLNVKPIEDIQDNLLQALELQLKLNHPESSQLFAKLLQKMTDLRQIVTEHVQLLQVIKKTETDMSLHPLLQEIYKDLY
Experimental: The cDNA encoding for the open reading frame of the hPPARγ2 was amplified by PCR (polymerase chain reaction) and inserted in the plasmid pGEX-4T-2. This construction (pGEX-hPPARγ) was introduced into E. coli where it was overexpressed and semipurified as a fusion protein with glutathione S-transferase (GST) (Elbrecht et al., J. Biol. Chem. 1999, 274, 7913-7922). The binding of the compounds to the GST-hPPARγ2 s was determined by modifications in the method described by Lehmann et al. (J. Biol. Chem. 1995, 270, 12953-12957). The receptors (2.5 μg) were incubated in 96-well plates in the presence or in the absence of the products with [^3H]BRL-49853 (100 nM) for 3 h at 4° C., in a final volume of 200 μL of buffer Tris-HCl 10 mM pH:8.0, containing KCl 50 mM and DTT 10 mM. Non-specific binding was determined in the presence of BRL49853 100 μM. The reaction mixture was transferred to a Multiscreen Durapore (Millipore) microplate containing glutathione-Sepharose 4B in every well. The reaction mixture was left to incubate with the resin during 10 min, and then centrifuged at 735 g during 2 min. To dissociate the receptor bound to the resin, reduced glutathione 10 mM is added and incubated during 10 min. The receptor was eluted by centrifugation. Then, scintillation liquid was added to the elution and the contained radioactivity was quantified by liquid scintillation spectroscopy (Microbeta Wallac, Perkin Elmer).
The human PPAR cDNA was amplified through RT-PCR. For hPPARγ2, RNA was obtained from human white adipose tissue. Each amplified fragment was cloned into pBluescript (Stratagene®) and sequenced. One clone for each construction was selected and used as template for further subcloning and PCR amplifications.
GST-Fused Protein Construction
To generate this chimeric protein, the complete cDNA of the human PPAR was cloned into pGEX4T2 (Amersham Biosciences). The fragment was obtained from the pBluescript-cDNAs clones digested with endonucleases. To assess the plasmid identity and to ensure the in-phase cloning of the proteins, pGEX construction was sequenced. GST-hPPARγ2 fusion protein was generated in Escherichia coli (BL21 strain DE3). Cells were cultured in LB medium to a density of A600=1.6 odu, and induced for overexpression by addition of isopropyl-1-thio-β-D-galactopyranoside (IPTG)-induced cultures to a final concentration of 0.5 mM. The IPTG-induced cultures were grown at room temperature o/n, before cells were harvested by centrifugation at 5000 g for 15 min. After sonication, the GST-fusion protein was purified from the cell pellet using glutathione-Sepharose beads, following the procedure recommended by the manufacturer (Amersham Pharmacia Biotech). Excess of gluthatione was removed o/n by dyalisis at 4° C. Receptor purity was visualized by SDS-PAGE and protein content was determined by Bradford method. Receptor aliquots were stored at −80° C. until use.

Functional activity PPARγ [1]	Ki (GST-hPPARγ2) [nM]	SMILES
	500 to 1500	C=CC(=O)N(CCCOc1ccc(C[C@H](Nc2ccccc2C(=O)c2ccccc2)C(=O)O)cc1)c1ccc(Cl)cc1 [I_128, (S)-3-(4-{3-[Acryloyl-(4-chlorophenyl)-amino]propoxy}phenyl)-2-(2-benzoylphenylamino)propionic acid]
	> 1500	Cc1ccc(N(CCOc2ccc(C[C@H](Nc3ccccc3C(=O)c3ccccc3)C(=O)O)cc2)C(=O)C(C)C)cc1 [I_149, (S)-2-(2-Benzoylphenylamino)-3-{4-[2-(isobutyryl-p-tolylamino)ethoxy]-phenyl}propionic acid]
	< 500	O=C(c1ccccc1)c1ccccc1N[C@@H](Cc1ccc(OCCCN(Cc2ccccc2)C(=O)C#Cc2ccccc2)cc1)C(=O)O [I_178, (S)-2-(2-Benzoylphenylamino)-3-(4-{3-[benzyl-(3-phenylpropynoyl)amino]-propoxy}phenyl)propionic acid]
PARTIAL AGONIST	500 to 1500	O=C(c1ccccc1)c1ccccc1N[C@@H](Cc1ccc(OCCCN(Cc2ccccc2)C(=O)Cc2cccnc2)cc1)C(=O)O [I_198, (S)-2-(2-Benzoylphenylamino)-3-(4-{3-[benzyl-(2-pyridin-3-ylacetyl)-amino]propoxy}phenyl)propionic acid]
AGONIST	< 500	O=C(c1ccccc1)c1ccccc1N[C@@H](Cc1ccc(OCCCN(CC2CC2)C(=O)Cc2ccccc2)cc1)C(=O)O [I_262, (S)-2-(2-Benzoylphenylamino)-3-{4-[3-(cyclopropylmethylphenylacetylamino)propoxy]phenyl}propionic acid]
AGONIST	< 500	O=C(c1ccccc1)c1ccccc1N[C@@H](Cc1ccc(OCCN(CC2CC2)C(=O)C=Cc2cccs2)cc1)C(=O)O [I_265, (S)-2-(2-Benzoylphenylamino)-3-(4-{2-[cyclopropylmethyl-(3-thiophen-2-ylacryloyl)amino]ethoxy}phenyl)-propionic acid]
	< 500	O=C(c1ccccc1)c1ccccc1N[C@@H](Cc1ccc(OCCCN(CC2CC2)C(=O)C2CCCC2)cc1)C(=O)O [I_280, (S)-2-(2-Benzoylphenylamino)-3-{4-[3-(cyclopentanecarbonylcyclopropylmethylamino)propoxy]phenyl}propionic acid]
	< 500	O=C(c1ccccc1)c1ccccc1N[C@@H](Cc1ccc(OCCN(C(=O)c2cc3ccccc3cn2)c2ccccc2)cc1)C(=O)O [I_303, (S)-2-(2-Benzoylphenylamino)-3-(4-{2-[(isoquinoline-3-carbonyl)-phenylamino]ethoxy}phenyl)propionic acid]
PARTIAL AGONIST	< 500	CC(C)(C)N(CCOc1ccc(C[C@H](Nc2ccccc2C(=O)c2ccccc2)C(=O)O)cc1)C(=O)C1CCC1 [I_375, (S)-2-(2-Benzoylphenylamino)-3-{4-[2-(tert-butylcyclobutanecarbonylamino)-ethoxy]phenyl}propionic acid]
	500 to 1500	O=C(c1ccccc1)c1ccccc1N[C@@H](Cc1ccc(OCCN(Cc2ccccc2F)c2ccccc2Cl)cc1)C(=O)O [I_379, (S)-2-(2-Benzoylphenylamino)-3-(4-{2-[(2-chlorophenyl)-(2-fluorobenzyl)-amino]ethoxy}phenyl)propionic acid]
	500 to 1500	COc1cccc(CN(CCCOc2ccc(C[C@H](Nc3ccccc3C(=O)c3ccccc3)C(=O)O)cc2)c2ccccc2)c1 [I_391, (S)-2-(2-Benzoylphenylamino)-3-(4-{3-[(3-methoxybenzyl)phenylamino]-propoxy}phenyl)propionic acid]
ANTAGONIST	< 500	Cc1cccc(N(CCCOc2ccc(C[C@H](Nc3ccccc3C(=O)c3ccccc3)C(=O)O)cc2)CC(C)C)c1 [I_410, (S)-2-(2-Benzoylphenylamino)-3-(4-{3-[isobutyl-m-tolylamino]propoxy}-phenyl)propionic acid]
	< 500	Cc1ccccc1N(CCOc1ccc(C[C@H](Nc2ccccc2C(=O)c2ccccc2)C(=O)O)cc1)CC1CCC1 [I_412, (S)-2-(2-Benzoylphenylamino)-3-{4-[2-(cyclobutylmethyl-o-tolylamino)-ethoxy]phenyl}propionic acid]
PARTIAL AGONIST	500 to 1500	O=C(c1ccccc1)c1ccccc1N[C@@H](Cc1ccc(OCCCN(Cc2ccccc2)CC2CC2)cc1)C(=O)O [I_418, (S)-2-(2-Benzoylphenylamino)-3-{4-[3-(benzylcyclopropylmethylamino)-propoxy]phenyl}propionic acid]
	500 to 1500	CC(=O)N(CCOc1ccc(C[C@H](Nc2ccccc2C(=O)c2ccccc2)C(=O)O)cc1)c1ccc2ccccc2c1 [I_438, (S)-3-{4-[2-(Acetylnaphthalen-2-ylamino)ethoxy]phenyl}-2-(2-benzoylphenylamino)propionic acid]
	500 to 1500	C/C=C/C(=O)N(CCOc1ccc(C[C@H](Nc2ccccc2C(=O)c2ccccc2)C(=O)O)cc1)c1cccc(SC)c1 [I_440, (S)-2-(2-Benzoylphenylamino)-3-(4-{2-[but-2-(E)-enoyl-(3-methylsulfanylphenyl)amino]ethoxy}-phenyl)propionic acid]
	< 500	O=C(c1ccccc1)c1ccccc1N[C@@H](Cc1ccc(OCCN(Cc2cccs2)c2ccccc2)cc1)C(=O)O [I_467, (S)-2-(2-Benzoylphenylamino)-3-{4-[2-(phenylthiophen-2-ylmethylamino)-ethoxy]phenyl}propionic acid]
	500 to 1500	COCCC(=O)N(CCOc1ccc(C[C@H](Nc2ccccc2C(=O)c2ccccc2)C(=O)O)cc1)Cc1ccccc1 [I_469, (S)-2-(2-Benzoylphenylamino)-3-(4-{2-[benzyl-(3-methoxypropionyl)-amino]ethoxy}phenyl)propionic acid]

SMILES	Functional activity PPARγ [1]	Ki (GST-hPPARγ2) [nM]
CCC(=O)N(CCOc1ccc(C[C@H](Nc2ccccc2C(=O)c2ccccc2)C(=O)O)cc1)c1ccc(Cl)cc1 [I_121]	ANTAGONIST	500 to 1500
